The record followed here is patent US6894068B2, “Substituted benzimidazoles as non-nucleoside inhibitors of reverse transcriptase” (The United States of America as represented by the …, priority 1997, dated 2005).

“Also recorded” adds a separate entry of the source. Read-outs that look alike come from different tables or passages of the source. A value given as a limit tells only on which side of the number the result lay.

Data set [1] concerns HIV-1 isolate L100I. Description: Cytopathic cell killing assay, MT-4 cells, isolate L100I. Conditions: Human immunodeficiency virus 1, MT4, read-out: EC50, isolate L100I, Table 10; values in μM. The format is cell-based. An excerpt:
(§1) The various HIV isolates tested in the Figures are those corresponding to wild-type virus (NL4-3) and the other strains listed by their RT mutations. The three 4×AZT isolates included in the Figures represent AZT drug-resistant variants. For example, the 4×AZT/L100I isolate has five mutations: four mutations confer increased resistance to AZT, and the other mutation is located within the NNRTI binding pocket. TZB and nevir. (nevirapine) are two well-known NNRTIs, included in this experiment for comparison purposes.
(§2) In this Example, the antiviral and cellular toxicity of NNRTIs was investigated, using the cytopathic cell killing assay described by Yang (Yang et al., “Characteristics of a Group of Non-nucleoside Reverse Transcriptase Inhibitors with Structural Diversity and Potent Anti-Human Immunodeficiency Virus Activity,” Leukemia 9:S75-S85 [1995]). Briefly, in this method cells (e.g., the CEM-SS cell line, available from the NIAID AIDS Research and Reference Program [ARRRP]) were seeded at a density of 5×10^3 cells/well, into the wells of a 96-well microtiter plate. The cells were then infected with HIV virus (either mutant or WT), at a multiplicity of infection (MOI) previously determined to provide complete cell killing by 6 days of culture post-infection (e.g., MOI of 0.01-0.05). Each of the HIV isolates was pre-titered to induce equivalent levels of infection based on cell killing or virus production, prior to their use in these assays. A range of test compound concentrations was added to the wells in triplicate (e.g., serial half-log dilutions) to evaluate inhibition of HIV infection. Controls for each assay included drug controls (drug colorimetric control wells), drug cytotoxicity control wells (cells with drug), virus control wells (cells with virus), and cell viability controls (cells only). Positive control drugs (e.g. AZT and ddC) were also run in parallel.
(§3) After six days of incubation at 37° C., cell viability was determined spectrophotometrically at 450 nm for each well, using the metabolic reduction of XTT to a soluble colored formazan. (See, Gartner and Popovic, “Virus Isolation and Production, in Aldovini and Walker (eds.), Techniques in HIV Research, Stockton Press, NY, pp. […] [1991]; and Nara and Fischinger, “Quantitative Infectivity Assay for HIV-1 and HIV-2, ” Nature 332:469-470 [1988]).
(§4) The in vitro therapeutic index (TI50) was defined as the fold-difference between the EC50 and IC50. The results for the various compounds are included in FIGS. 8 and 19.
(In general: Damage to the host cells serves as the signal in cytopathic effect assays.)

The subject of data set [2] is HIV-1 WT virus (NL4-3). Description: microbe, parasite or virus in culture. The format is cell-based. As to conditions: Human immunodeficiency virus 1, NL43, CEM-SS, read-out: EC50. An outline of the steps:
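CEM-SS cells (5×10^3/well) infected with HIV-1 NL4-3 at MOI giving complete killing by day 6 (e.g., 0.01-0.05), with half-log compound dilutions in triplicate. After six days at 37° C., viability measured by XTT reduction at 450 nm; CIC50 is 50% inhibitory concentration of cytopathic killing.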

For data set [3], the system named is HIV-1 isolate 4xAZT (AZT drug-resistant variant). As to the kind of experiment: Cytopathic cell killing assay, MT-4 cells, isolate 4xAZT. The data set is classed as cell-based. As to conditions: Human immunodeficiency virus 1, MT4, read-out: EC50, isolate 4XAZT.
Text: as §1
(§5) In this Example, the antiviral and cellular toxicity of NNRTIs was investigated, using the cytopathic cell killing assay described by Yang (Yang et al., “Characteristics of a Group of Non-nucleoside Reverse Transcriptase Inhibitors with Structural Diversity and Potent Anti-Human Immunodeficiency Virus Activity,” Leukemia 9:S75-S85 [1995]). Briefly, in this method cells (e.g., the CEM-SS cell line, available from the NIAID AIDS Research and Reference Program [ARRRP]) were seeded at a density of 5×10^3 cells/well, into the wells of a 96-well microtiter plate. The cells were then infected with HIV virus (either mutant or WT), at a multiplicity of infection (MOI) previously determined to provide complete cell killing by 6 days of culture post-infection (e.g., MOI of 0.01-0.05). Each of the HIV isolates was pre-titered to induce equivalent levels of infection based on cell killing or virus production, prior to their use in these assays. A range of test compound concentrations was added to the wells in triplicate (e.g., serial half-log dilutions) to evaluate inhibition of HIV infection. […]
(§6) After six days of incubation at 37° C., cell viability was determined spectrophotometrically at 450 nm for each well, using the metabolic reduction of XTT to a soluble colored formazan. (See, Gartner and Popovic, “Virus Isolation and Production, in Aldovini and Walker (eds.), Techniques in HIV Research, Stockton Press, NY, pp. […] [1991]; and Nara and Fischinger, “Quantitative Infectivity Assay for HIV-1 and HIV-2, ” Nature 332:469-470 [1988]). […]

Data set [4] concerns HIV-1 isolate K103N. Description: Cytopathic cell killing assay, MT-4 cells, isolate K103N. The format is cell-based. As to conditions: cytopathic cell killing assay.
Text: as §1, §2, §3, §4

Data set [5] deals with HIV-1 isolate Y181C. Description: Cytopathic cell killing assay, MT-4 cells, isolate Y181C. The format is cell-based.
Text: as §1, §2, §3, §4

The test system of data set [6] is HIV-1 isolate A98G. Description: Cytopathic cell killing assay, MT-4 cells, isolate A98G. The format is cell-based. Conditions: Human immunodeficiency virus 1, MT4, read-out: EC50, isolate A98G, Table 8; MT-4 cells.
Text: as §1, §2, §3, §4

Data set [7] relates to HIV-1 isolate Y188H. Description: Cytopathic cell killing assay, isolate Y188H. The format is cell-based. Conditions: Human immunodeficiency virus 1, read-out: EC50, isolate Y188H.
Text: as §1, §2, §3, §4

Data set [8] relates to HIV-1 isolate M184I. As to the kind of experiment: Cytopathic cell killing assay, isolate M184I. The data set is classed as cell-based. Conditions: Human immunodeficiency virus 1, read-out: EC50, isolate M184I.
Text: as §1, §5, §6

For data set [9], the system named is WT and HIV-1 variants containing amino acid substitutions in RT. The format is cell-based. Conditions: cytopathic cell killing assay, NNRTI-resistant HIV isolates.
Text: In these Tables, antiviral data are reported as the quantity of drug in μM required to reduce cell killing or virus production by 50% (EC50). The various HIV isolates tested in the Figures are those corresponding to wild-type virus (NL4-3) and the other strains listed by their RT mutations. The three 4×AZT isolates included in the Figures represent AZT drug-resistant variants.
(§7) Briefly, in this method cells (e.g., the CEM-SS cell line, available from the NIAID AIDS Research and Reference Program [ARRRP]) were seeded at a density of 5×10^3 cells/well, into the wells of a 96-well microtiter plate. The cells were then infected with HIV virus (either mutant or WT), at a multiplicity of infection (MOI) previously determined to provide complete cell killing by 6 days of culture post-infection (e.g., MOI of 0.01-0.05). Each of the HIV isolates was pre-titered to induce equivalent levels of infection based on cell killing or virus production, prior to their use in these assays. A range of test compound concentrations was added to the wells in triplicate (e.g., serial half-log dilutions) to evaluate inhibition of HIV infection. Controls for each assay included drug controls (drug colorimetric control wells), drug cytotoxicity control wells (cells with drug), virus control wells (cells with virus), and cell viability controls (cells only). Positive control drugs (e.g. AZT and ddC) were also run in parallel.
as §3
Antiviral and toxicity data were reported as the quantity of drug required to inhibit 50% of virus-induced cell killing or virus production (EC50), and the quantity of drug required to […] (IC50). The in vitro therapeutic index (TI50) was defined as the fold-difference between the EC50 and IC50.

In data set [10] the test system is HIV-1 isolate V108I. As to the kind of experiment: Cytopathic cell killing assay, MT-4 cells, isolate V108I. The format is cell-based. As to conditions: Human immunodeficiency virus 1, MT4, read-out: EC50, isolate V108I, Table 10; values in μM.
Text: as §1, §2, §3, §4

Data set [11] has as its system HIV-1 isolate K101E. As to the kind of experiment: Cytopathic cell killing assay, MT-4 cells, isolate K101E. The data set is classed as cell-based. Conditions: Human immunodeficiency virus 1, MT4, read-out: EC50, isolate K101E, Table 10; values in μM.
Text: as §1, §2, §3, §4

The subject of data set [12] is HIV-1 NL4-3 (WT). As to the kind of experiment: Cytopathic cell killing assay, MT-4 cells, isolate NL4-3 (WT). The data set is classed as cell-based. As to conditions: Human immunodeficiency virus 1, NL43, MT4, read-out: EC50, isolate NL4-3, Table 9; MT-4 cells.
Text: as §1, §2, §3, §4

Data set [13] deals with HIV-1 isolate Y188C. As to the kind of experiment: Cytopathic cell killing assay, MT-4 cells, isolate Y188C. The data set is classed as cell-based. As to conditions: Human immunodeficiency virus 1, MT4, read-out: EC50, isolate Y188C, Table 9; MT-4 cells.
Text: as §1, §2, §3, §4

For data set [14], the system named is HIV-1 isolate 4xAZT/L100I. As to the kind of experiment: Cytopathic cell killing assay, MT-4 cells, isolate 4xAZT/L100I. The format is cell-based. Conditions: read-out: EC50, isolate 4XAZT/L1001; Table 9; MT-4 cells. The protocol: The various HIV isolates tested in the Figures are those corresponding to wild-type virus (NL4-3) and the other strains listed by their RT mutations. The three 4×AZT isolates included in the Figures represent AZT drug-resistant variants.
as §7, §3
The in vitro therapeutic index (TI50) was defined as the fold-difference between the EC50 and IC50.

Data set [15] has as its system HIV-1 isolate L74V. Description: Cytopathic cell killing assay, MT-4 cells, isolate L74V. The data set is classed as cell-based. Conditions: Human immunodeficiency virus 1, MT4, read-out: EC50, isolate L74V, Table 9; MT-4 cells.
Text: as §1, §2, §3, §4

Take `COc1cccc2c1nc(-c1c(F)cccc1F)n2Cc1c(F)cccc1F` [Compound 5006, 1-(2,6-difluorobenzyl)-2-(2,6-difluorophenyl)-4-methoxylbenzimidazole]: the melting point (usually the temperature of the solid-liquid transition) was in the range of 154 to 155 °C. For the same molecule, the EC50 in data set [1] was determined as 0.16 µM. Moreover, the EC50 in [2] (Table 7, drug concentration required to reduce cell killing or virus production by 50%, WT) is 4.6 nM. In [2] (Table 11, CEMSS/NL4-3, NRVC = no reduction in viral CPE), the EC50 worked out at 60 nM. The EC50 in [2] (text b130, cytopathic cell killing assay, WT) came to 4.6 nM. The EC50 in data set [3] amounted to 600 nM. Besides, the “activity against K103N, result in words” value in data set [4] is “failed to show any activity”. In [5] (Human immunodeficiency virus 1, MT4, read-out: EC50, isolate Y181C, Table 10, values in μM), the EC50 stood at 0.26 µM. In addition, the “activity against Y181C, result in words” value in data set [5] (cytopathic cell killing assay) is “maintaining activity”. In addition, the EC50 in [6] came to 300 nM. Further, the EC50 in [7] amounted to 260 nM. Also, the EC50 in data set [8] is 160 nM. Further, the “cross-resistance profile, result in words” value in [9] is on record as “inhibit HIV-1 better than TZB; also recorded: equal or better against the various variants than nevirapine”. In data set [9] (listed as 44), the “cross-resistance profile, result in words” value is reported as “retained the best activity against the different RT variants; also recorded: retains activity comparable with nevirapine”. In addition, the EC50 in data set [10] amounted to 2.82 µM. Further, in data set [11], the EC50 worked out at 2.82 µM.

In the case of `Fc1cccc(F)c1C1SCc2nc3ccccc3n21` (stereo not drawn) [TZB, 1-(2,6-difluorophenyl)-1H,3H-thiazolo[3,4-a]benzimidazole, reference compound], the EC50 is 1000 nM in data set [12], over 20 µM in data set [13], 1100 nM in data set [14] and 800 nM in data set [15]. In addition, the “activity against K103N, result in words” value in data set [4] is recorded as “ineffective”.
